# Measured values taken from article PMC5068967, “Nucleophile sensitivity of Drosophila TRPA1 underlies light-induced feeding deterrence” (eLife, 2016).
# Assays:
# human TRPA1 (humTRPA1) = molecular target: T1, human TRPA1 (humTRPA1) (Homo sapiens, UniProt O75762); assay: Two-electrode voltage clamp of Xenopus oocytes expressing human TRPA1; assay type: cell-based
# T1 construct: expressed in transfected cells; host or cells: Xenopus laevis oocytes injected with TrpA1 cRNA
# Experimental: (§1) TRPA1-dependent currents in Xenopus laevis oocytes induced by application of chemicals and light illumination were recorded by the two-electrode voltage clamping technique (TEVC), as described previously ([Kang et al., 2010]; [Kang et al., 2012]). Briefly, ovaries were surgically prepared and subjected to digestion with 1.5 mg/ml collagenase for 1.5 hr. Subsequently, the follicular layer of the oocytes was manually removed. One day after microinjection of 50 nl of TrpA1 cRNA, oocytes were electrophysiologically examined while perfused with the recording solution (96 mM NaCl, 1 mM KCl, 1 mM MgCl2, 5 mM HEPES, pH 7.6). For UV illumination, the optical fiber terminal was mounted above the cell at a minimal distance to achieve the highest possible intensity (Figure 1—figure supplement 1c). […] For UV experiments, the initial voltage was −60 mV, and it was then changed in periods of 300 ms from −60 to +60 mV per second. […] The current was amplified with a GeneClamp 500B amplifier (Molecular Devices, CA, USA) and registered by a digitizer (Digidata 1440 A, Molecular Devices, CA, USA). Data from dose-dependence experiments were normalized with respect to 0.1 mM NMM currents recorded from the same cells, and fitted to the Hill equation using Sigmaplot12.
# TRPA1(A)C105A = assay: Two-electrode voltage clamp of Xenopus oocytes expressing TRPA1(A)C105A; assay type: cell-based, Drosophila melanogaster
# Experimental: as §1
# Drosophila TRPA1(B) = molecular target: T2, Drosophila TRPA1(B) (Drosophila melanogaster, UniProt Q7Z020); assay: Two-electrode voltage clamp of Xenopus oocytes expressing Drosophila TRPA1(B); assay type: cell-based
# T2 construct: expressed in transfected cells; host or cells: Xenopus laevis oocytes injected with TrpA1 cRNA
# T2 sequence (Q7Z020 1-1197): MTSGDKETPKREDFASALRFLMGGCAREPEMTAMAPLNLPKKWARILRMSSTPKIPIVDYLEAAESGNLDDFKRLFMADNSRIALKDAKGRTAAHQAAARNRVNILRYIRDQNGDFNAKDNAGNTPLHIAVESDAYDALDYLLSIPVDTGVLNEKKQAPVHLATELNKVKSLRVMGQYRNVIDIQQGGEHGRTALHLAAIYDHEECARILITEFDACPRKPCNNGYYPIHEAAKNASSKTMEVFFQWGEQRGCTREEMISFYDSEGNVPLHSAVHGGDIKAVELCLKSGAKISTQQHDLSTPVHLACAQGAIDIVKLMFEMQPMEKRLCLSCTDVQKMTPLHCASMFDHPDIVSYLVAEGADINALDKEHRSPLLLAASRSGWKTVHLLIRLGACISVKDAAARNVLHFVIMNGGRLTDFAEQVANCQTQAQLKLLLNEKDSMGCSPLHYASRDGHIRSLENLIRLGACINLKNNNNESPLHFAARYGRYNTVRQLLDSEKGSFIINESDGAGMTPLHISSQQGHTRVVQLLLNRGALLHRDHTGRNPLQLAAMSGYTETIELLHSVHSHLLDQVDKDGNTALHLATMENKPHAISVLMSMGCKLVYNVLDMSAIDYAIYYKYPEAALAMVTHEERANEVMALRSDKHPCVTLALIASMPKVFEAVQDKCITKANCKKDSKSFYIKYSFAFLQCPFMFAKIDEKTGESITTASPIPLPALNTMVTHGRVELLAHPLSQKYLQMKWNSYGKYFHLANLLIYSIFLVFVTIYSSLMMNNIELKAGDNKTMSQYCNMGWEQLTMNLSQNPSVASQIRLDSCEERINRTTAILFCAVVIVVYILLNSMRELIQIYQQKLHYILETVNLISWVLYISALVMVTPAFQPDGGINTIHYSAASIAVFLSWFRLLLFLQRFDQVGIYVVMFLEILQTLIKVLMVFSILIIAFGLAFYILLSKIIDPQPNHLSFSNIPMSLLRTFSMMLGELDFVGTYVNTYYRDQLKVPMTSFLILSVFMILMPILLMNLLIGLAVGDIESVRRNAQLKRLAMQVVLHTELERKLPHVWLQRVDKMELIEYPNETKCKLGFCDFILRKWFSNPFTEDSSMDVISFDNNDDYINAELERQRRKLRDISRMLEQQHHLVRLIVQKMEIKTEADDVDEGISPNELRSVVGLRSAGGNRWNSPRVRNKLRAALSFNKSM
# Experimental: as §1
# [1] = test system: bitter-sensing neurons in i-bristles; assay: Extracellular single sensillum recording from labellum i-bristles; assay type: in vivo, Drosophila melanogaster; details: for effect of pre-application on UV-evoked action potentials: i-a bristles, applied via the recording electrode, concentrations below those eliciting fast activation
# Experimental: In vivo taste cell recordings were performed as detailed previously ([Kang et al., 2012]). Briefly, bristles were identified based on the previously described sensillum map of the labellum ([Weiss et al., 2011]; [Tanimura et al., 2009]). […] Tricholine citrate (TCC) at 30 mM was used as an electrolyte in the glass recording electrodes. Chemicals were solubilized in the electrolyte solution, and then applied to taste neurons. Spiking frequencies to chemicals were calculated for entire recordings except for H2O2 recording in L bristles, for which spiking frequencies were calcuclated from the first 10 s. […] For the first 20 s of UV response recordings, the basal activity of neurons in the bristle was monitored, after which time UV illumination was administered to the sensilla for 20 s using optical fiber-coupled UV LEDs (FCS-0295–000, Mightex, CA, and UVTOP295, Qphotonics, MI, USA for UVB at 295 nm and M365FP1, Thorlabs, USA for UVA at 365 nm) controlled by an SLA-series two-channel LED driver (SLA-0100–2, Mightex) and a T-Cube LED driver (LEDD1B, Thorlab, USA), respectively. The maximal optical fiber output of 295 nm UV was 0.063 mWusing a ball-lens type LED and that of 365 nm UV was 0.3 mW. These net power outputs at the tip of the optical fiber were measured with a photodiode sensor (S120VC, Thorlabs, NJ, USA) connected to a digital console (PM100D, Thorlabs, NJ, USA). Illumination intensity was calculated by considering the size of illuminated area derived from the numerical aperture (NA) values of the optical fibers and the distance to the samples. Due to the complex shape of fly taste bristles on the labellum and various illumination angles between the light beam and tissue, we simplified the calculation by postulating a 45° angle and oval illumination area at a distance (Figure 1—figure supplement 1d). For oocytes, circular areas were calculated (Figure 1—figure supplement 1e). Blue and green light illumination was accomplished using a GFP or RFP excitation filter (470 or 540 nm with a bandpath of 50, respectively) equipped with a typical fluorescence microscope. The UV filter for experiments with white light consisted of glass deposited with nanolayers of titanium dioxide (custom-made, Seoul Precision Optics, Seoul, Korea). Flies prepared for sensillum recording in response to light were used once to record from a single bristle, in order to test only naïve cells. The reference electrode containing hemolymph-like solution 3.1 (HL3.1) ([Feng et al., 2009]) was inserted close to the labella taste neuron cell bodies from the back of the fly thorax, which held the proboscis in an extended configuration in order to minimize electrical noise stemming from movement of the live animal. Tasteprobe (Syntech, Netherlands) was used as a preamplifier to register the action potentials from the neurons, which were digitized with Powerlab (ADI instruments, Australia). The obtained spiking frequencies were analyzed by Labchart (ADI instruments, Australia). Non-responding bristles were re-tested with other agonists that activate the same neurons as indicated in the main text (Figure 1—figure supplement 2 and Figure 3—figure supplement 1).
# agTRPA1(A) = agTRPA1(A) (Anopheles gambiae, UniProt B3G3I7); assay: Two-electrode voltage clamp of Xenopus oocytes expressing agTRPA1(A); assay type: cell-based; details: for isoform preference of activation: −60 mV, agTRPA1(A) versus agTRPA1(B)
# Experimental: as §1
# TRPA1(A)R113A/R116A = assay: Two-electrode voltage clamp of Xenopus oocytes expressing TRPA1(A)R113A/R116A; assay type: cell-based, Drosophila melanogaster
# Experimental: as §1
# agTRPA1(B) = assay: Two-electrode voltage clamp of Xenopus oocytes expressing agTRPA1(B); assay type: cell-based, Anopheles gambiae; details: 0.1 mM APS
# Experimental: as §1
# Drosophila (WT: wcs) = assay: Capillary feeder (Café) assay, feeding avoidance; assay type: in vivo, Drosophila melanogaster; set-up: dose or concentration left out as unconfirmed; details: WT flies
# Experimental: To quantitatively evaluate the impact of UV irradiation and chemicals on feeding deterrence, the capillary feeder (Café) assay ([Ja et al., 2007]) was used with minor modifications. In particular, feeding avoidance upon UV illumination was determined using two sibling populations of 16 hr starved flies. […] Irradiance was measured as ~1.8, 4, and 57.1 mW/cm^2for UVA, UVB, and white light, respectively, using an excised piece of a vial covering the photodiode probe (S120VC, Thorlabs, NJ, USA) to simulate internal irradiation. The vials were made of polypropylene, which has a low rate of UV transmission ([Kruenate et al., 2004]), resulting in increased internal temperature, as described in Figure 1—figure supplement 3. To minimize thermal accumulation, the UV-illuminated vial was actively cooled by fan-driven air flow while the internal temperature of a separately illuminated vial was concurrently monitored. After each feeding session, the change in the level of the menisci of 30 mM sucrose solutions in three calibrated glass capillary tubes (#2920107, Marienfeld, Lauda-Königshofen, Germany, 15 mm/μl) was measured. Following measurement of the evaporated volume obtained from vials without flies, the distance readings were converted to volume measurements. […]
# Drosophila TRPA1(A) = molecular target: T3, Drosophila TRPA1(A) (Drosophila melanogaster, UniProt Q7Z020); assay: Two-electrode voltage clamp of Xenopus oocytes expressing Drosophila TRPA1(A); assay type: cell-based
# T3 sequence (Q7Z020 1-1197): T2 sequence (Q7Z020 1-1197)
# Experimental: as §1
# mouse TRPA1 = details: extracellular Ca2+ required; ref Andersson et al., 2008; cited from earlier work
# agTRPA1(A), sequence (B3G3I7 entry or part of it): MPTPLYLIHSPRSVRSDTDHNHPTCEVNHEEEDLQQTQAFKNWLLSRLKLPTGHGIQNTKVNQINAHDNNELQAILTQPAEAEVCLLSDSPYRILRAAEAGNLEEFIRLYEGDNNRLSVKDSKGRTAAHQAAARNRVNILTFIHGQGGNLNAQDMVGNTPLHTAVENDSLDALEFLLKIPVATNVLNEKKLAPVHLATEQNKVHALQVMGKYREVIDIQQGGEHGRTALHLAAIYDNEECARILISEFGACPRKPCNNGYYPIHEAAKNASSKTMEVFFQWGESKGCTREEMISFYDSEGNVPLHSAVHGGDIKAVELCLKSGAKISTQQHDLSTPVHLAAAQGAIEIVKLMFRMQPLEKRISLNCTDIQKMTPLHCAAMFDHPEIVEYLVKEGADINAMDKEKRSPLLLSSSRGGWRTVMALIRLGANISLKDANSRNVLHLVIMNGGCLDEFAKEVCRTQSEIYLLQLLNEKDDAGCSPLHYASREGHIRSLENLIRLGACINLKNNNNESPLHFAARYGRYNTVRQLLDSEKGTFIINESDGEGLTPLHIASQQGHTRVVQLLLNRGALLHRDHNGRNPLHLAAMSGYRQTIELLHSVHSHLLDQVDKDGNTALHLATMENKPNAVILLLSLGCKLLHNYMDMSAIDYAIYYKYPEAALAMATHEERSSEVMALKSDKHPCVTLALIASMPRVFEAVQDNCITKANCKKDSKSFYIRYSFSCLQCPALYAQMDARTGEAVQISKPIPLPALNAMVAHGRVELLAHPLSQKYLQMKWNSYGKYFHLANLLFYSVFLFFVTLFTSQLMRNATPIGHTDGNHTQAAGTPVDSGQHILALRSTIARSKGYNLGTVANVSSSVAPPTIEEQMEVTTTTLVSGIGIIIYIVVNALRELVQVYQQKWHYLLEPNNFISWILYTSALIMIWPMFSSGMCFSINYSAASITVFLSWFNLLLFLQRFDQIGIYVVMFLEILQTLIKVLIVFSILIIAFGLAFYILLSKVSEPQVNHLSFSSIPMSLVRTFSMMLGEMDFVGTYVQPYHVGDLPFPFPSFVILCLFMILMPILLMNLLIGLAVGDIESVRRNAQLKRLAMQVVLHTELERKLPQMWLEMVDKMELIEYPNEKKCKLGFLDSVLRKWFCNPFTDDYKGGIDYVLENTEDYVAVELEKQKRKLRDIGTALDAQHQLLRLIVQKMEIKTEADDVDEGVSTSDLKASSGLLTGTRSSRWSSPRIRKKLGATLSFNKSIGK
# T1 sequence (O75762 whole entry): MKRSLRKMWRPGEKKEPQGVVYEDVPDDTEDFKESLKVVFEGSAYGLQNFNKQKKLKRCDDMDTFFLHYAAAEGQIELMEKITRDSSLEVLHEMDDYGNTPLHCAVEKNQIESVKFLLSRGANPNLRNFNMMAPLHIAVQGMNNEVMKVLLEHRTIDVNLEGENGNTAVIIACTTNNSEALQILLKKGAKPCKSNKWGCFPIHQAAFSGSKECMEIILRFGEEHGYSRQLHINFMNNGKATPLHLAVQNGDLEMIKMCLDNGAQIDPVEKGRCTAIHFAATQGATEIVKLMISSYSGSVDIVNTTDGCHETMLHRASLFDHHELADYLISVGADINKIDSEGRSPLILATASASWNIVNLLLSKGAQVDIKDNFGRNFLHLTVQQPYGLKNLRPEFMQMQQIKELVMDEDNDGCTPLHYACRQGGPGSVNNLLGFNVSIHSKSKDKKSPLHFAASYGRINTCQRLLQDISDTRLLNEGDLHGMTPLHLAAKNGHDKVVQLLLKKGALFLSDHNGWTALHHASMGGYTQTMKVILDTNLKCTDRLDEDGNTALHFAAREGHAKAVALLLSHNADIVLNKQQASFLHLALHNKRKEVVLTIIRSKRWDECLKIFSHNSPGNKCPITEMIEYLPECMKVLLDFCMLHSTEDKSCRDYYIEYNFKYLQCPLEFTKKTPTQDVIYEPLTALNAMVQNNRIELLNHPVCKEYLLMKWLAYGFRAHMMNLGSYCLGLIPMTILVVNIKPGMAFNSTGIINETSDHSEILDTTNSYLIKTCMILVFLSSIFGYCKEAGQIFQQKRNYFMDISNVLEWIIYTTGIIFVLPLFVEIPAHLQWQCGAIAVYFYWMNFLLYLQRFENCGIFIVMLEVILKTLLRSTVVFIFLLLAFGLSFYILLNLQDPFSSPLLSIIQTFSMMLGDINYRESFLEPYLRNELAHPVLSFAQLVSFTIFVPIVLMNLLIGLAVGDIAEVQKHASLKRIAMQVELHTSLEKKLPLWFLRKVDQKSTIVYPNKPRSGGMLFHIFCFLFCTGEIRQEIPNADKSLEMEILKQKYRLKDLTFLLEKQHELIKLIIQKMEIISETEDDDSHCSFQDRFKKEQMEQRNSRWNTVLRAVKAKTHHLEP
structure (smiles),measurement,setting,value
"O[C@@H](CS)[C@@H](O)CS (racemic) [DTT, dithiothreitol]",DTT current response,human TRPA1 (humTRPA1),seldom showed electrophysiological responses to DTT
same,DTT responsiveness,TRPA1(A)C105A,indistinguishable from that of TRPA1(B)
same,DTT current response,Drosophila TRPA1(B); Xenopus oocytes,little compared to that of TRPA1(A)
same,effect of pre-application on UV-evoked action potentials,[1],lowered the frequencies of UV-evoked action potentials
same,EC50,agTRPA1(A),~3.8 µM
same,DTT responsiveness,TRPA1(A)R113A/R116A,indistinguishable from that of TRPA1(B)
"N.N.O=S(=O)(O)OOS(=O)(=O)O [APS, ammonium persulfate]",channel activation,agTRPA1(B),not agTRPA1(B)
same,channel activation,"agTRPA1(A); 0.1 mM APS, mixture 0.01 mM TEMED and 0.1 mM APS, from 30 min after mixing",activated agTPRA1(A)
"S=C=NCc1ccccc1 [BITC, benzyl isothiocyanate]",effect of pre-application on UV-evoked action potentials,[1],lowered the frequencies of UV-evoked action potentials
"N#CSCc1ccccc1 [BTC, benzyl thiocyanate]",effect of pre-application on UV-evoked action potentials,[1],lowered the frequencies of UV-evoked action potentials
same,isoform preference of activation,agTRPA1(A); Xenopus oocytes,preferentially activated agTRPA1(A) over agTRPA1(B)
"OO [H2O2, hydrogen peroxide]",H2O2 current response,human TRPA1 (humTRPA1),remarkably reduced responses to H2O2
same,feeding avoidance,Drosophila (WT: wcs),increasingly avoided ingestion of H2O2-containing food
same,H2O2 current response,TRPA1(A)C105A,remarkably reduced responses to H2O2
same,EC50,Drosophila TRPA1(B),900 ± 200 µM
same,spiking response of bitter-sensing neurons,"[1]; 100 mM H2O2, required the TrpA1 gene",robust spiking response
same,EC50,Drosophila TRPA1(A),5 ± 0.8 µM
same,lowest concentration that readily activates the channel,"Drosophila TRPA1(A); Xenopus oocytes, 'as low as'",100 nM
same,Emax,Drosophila TRPA1(A); read-out: average maximal current amplitude relative to NMM responses,~30%
same,EC50,agTRPA1(A),1.7 ± 0.3 µM
same,NMM-normalized peak current amplitude relative to Drosophila TRPA1(A),agTRPA1(A); Xenopus oocytes,~ 5 times
same,H2O2 current response,TRPA1(A)R113A/R116A,remarkably reduced responses to H2O2
same,EC50,mouse TRPA1,~230 µM
"CN1C(=O)C=CC1=O [NMM, N-methyl maleimide]",feeding avoidance,Drosophila (WT: wcs),showed NMM-dependent feeding avoidance
same,effect of pre-application on UV-evoked action potentials,[1],lowered the frequencies of UV-evoked action potentials
same,reversal potential of evoked current,"Drosophila TRPA1(A); Xenopus oocytes, n = 7",−5.4 ± 1.0 mV
same,rectification: ratio of conductance at +60 mV to that at −60 mV,"Drosophila TRPA1(A); net response, Xenopus oocytes, n = 4",1.7 ± 0.3
same,effect on the stimulatory effect of APS/TEMED co-incubation,agTRPA1(A); NMM at 0.01 mM,abolished
c1c[nH]cn1 [imidazole],isoform preference of activation,agTRPA1(A); Xenopus oocytes,preferentially activated agTRPA1(A) over agTRPA1(B)
